Key:
[1] = Distribution coefficient (LogD), shake-flask method; format: physicochemical; details: n-octanol/PBS pH 7.4, n = 3, read-out: LogD7.4
Description: The distribution coefficient (LogD) was determined using the shake-flask method. Briefly, 500 µCi (18.5 MBq) of [^18F]TAAR1-2203 was added to a presaturated mixture of PBS (1.3 mL, pH 7.4) and n-octanol (3 mL). The mixture was vortexed for 5 min, after which 500 µL aliquots (n = 3) were transferred into separate tubes and centrifuged at 3500–4000 rpm for 5 min. Following centrifugation, 50 µL of the n-octanol phase and 500 µL of the aqueous phase were carefully sampled and transferred into pre-weighed gamma counter tubes. After weighing, radioactivity in each phase was quantified using a Packard Cobra 5002/5003 gamma counter. The LogD value at pH 7.4 was calculated based on the measured weights and the radioactivity distribution between the organic and aqueous phases, as previously reported.

[2] = Stability in formulation, saline and phosphate buffer; format: physicochemical; details: up to 4 h at ambient temperature
Description: […] Analytical HPLC was performed using an XBridge C18 column (3.5 μm, 4.6 mm × 150 mm) under isocratic conditions with a mobile phase of MeCN/H2O (35:65, v/v) containing 0.1% triethylamine (TEA) at a flow rate of 1.0 mL/min.

[3] = Serum stability, mouse serum; format: in vitro ADME; details: 60 min, 37 °C
Description: (§1) The stability of [^18F]TAAR1-2203 was assessed in mouse, rat, NHP, and human serum. Aliquots (400 µL) of serum were preincubated at 37 °C for 5 min, followed by the addition of [^18F]TAAR1-2203 (20 µL, 300 µCi/11.1 MBq). After 60 min, 200 µL of each sample was collected, quenched with ice-cold MeCN (200 µL), centrifuged at 10,000 g for 5 min, and analyzed by radio-HPLC (XBridge C18 column, 3.5 μm, 4.6 mm × 150 mm; CH3CN/H2O 35:65 with 0.1% TEA; flow rate 1.0 mL/min). Experiments in PBS served as negative controls, and benfluorex hydrochloride was used as a positive control.

[4] = Serum stability, NHP serum; format: in vitro ADME, non-human primate; details: 60 min, 37 °C
Description: as §1

[5] = Serum stability, human serum; format: in vitro ADME; details: 60 min, 37 °C
Description: as §1

[6] = Microsomal stability, rat liver microsomes; format: in vitro ADME; details: after 60 min, 37 °C, printed as rodent microsomes
Description: (§2) Microsomal stability of [^18F]TAAR1-2203 was evaluated using mouse, rat, NHP, and human liver microsomes. Potassium phosphate buffer (340 µL, 0.5 M, pH 7.4) was combined with NADPH regenerating solution (40 µL, 10 mM). Radiotracer solution (10 µL, 150 µCi, 5.5 MBq) was added, and the mixture was preincubated at 37 °C for 5 min. Liver microsomes (20 µL) were subsequently added. Incubations were carried out at 37 °C with gentle shaking. At 30 and 60 min, 200 µL aliquots were quenched with ice-cold MeCN (200 µL), centrifuged at 10,000 g for 5 min, and analyzed using an AR-2000 radio-TLC imaging scanner (Eckert & Ziegler).

[7] = Microsomal stability, NHP liver microsomes; format: in vitro ADME, non-human primate; details: after 60 min, 37 °C
Description: as §2

[8] = Microsomal stability, human liver microsomes; format: in vitro ADME; details: after 60 min, 37 °C
Description: as §2

[9] = Plasma protein binding of tracer, rat plasma; format: in vitro ADME; details: radiotracer, 10 min incubation, ultrafiltration, read-out: Free fraction in rat plasma
Description: Plasma protein binding of [^18F]TAAR1-2203 was determined in mouse, rat, NHP, and human plasma. Plasma samples (150 µL, n = 3) were preincubated at 37 °C for 5 min before addition of [^18F]TAAR1-2203 (10 µCi, 0.37 MBq). After 10 min of incubation, 300 µL of ice-cold PBS were added. Samples (300 µL) were then transferred onto Amicon® centrifugal filter units (10 kDa cut-off) and centrifuged at 2100 g for 15 min at 4 °C. Filtrates were washed with 300 µL PBS and centrifuged again. Radioactivity in the filtrate and protein-bound fractions was measured using a Packard Cobra 5002/5003 gamma counter.

TAAR1 [10] = molecular target: T1, TAAR1 (Rattus norvegicus, UniProt Q923Y9); assay: In vitro autoradiography, rat pancreas and kidney sections; format: binding, Sprague Dawley rats; details: tracer 5–8 nM; blockade with RO5333943 or RO5425754 at 10 µM
T1 construct: peripheral organs that express endogenous TAAR1; tissue Charles River; host or cells: rat pancreas, kidney
T1 sequence (Q923Y9 whole entry): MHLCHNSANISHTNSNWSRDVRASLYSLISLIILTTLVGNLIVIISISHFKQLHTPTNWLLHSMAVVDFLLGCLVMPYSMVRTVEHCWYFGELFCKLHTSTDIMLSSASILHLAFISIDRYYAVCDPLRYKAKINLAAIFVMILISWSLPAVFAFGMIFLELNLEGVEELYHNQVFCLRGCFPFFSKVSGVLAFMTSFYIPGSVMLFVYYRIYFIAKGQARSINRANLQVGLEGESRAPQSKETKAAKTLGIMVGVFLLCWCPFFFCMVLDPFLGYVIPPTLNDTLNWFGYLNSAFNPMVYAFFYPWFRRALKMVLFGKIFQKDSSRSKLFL
Description: (§3) In vitro autoradiography experiments with [^18F]TAAR1-2203 were conducted on mouse and rat pancreas, kidney and brain tissue sections, respectively. Tissue Sect. (20 μm) were thawed on ice for 10 min and preincubated in assay buffer (50 mM Tris, pH 7.4) for 10 min. Subsequently, sections were incubated with [^18F]TAAR1-2203 for 40 min at ambient temperature. For blocking studies, structurally distinct TAAR1 agonists, RO5333943 or RO5425754, were added in excess to the assay buffer at a final concentration of 10 µM. After incubation, sections were washed in assay buffer for 2 min on ice and dipped briefly in water (2 × 5 s), followed by drying and exposure to a phosphor imager plate for 60 min. Imager plates were scanned on an Amersham Typhoon analyzer system, and images were analyzed using ImageQuant TL 8.1, as previously reported.

TAAR1 [11] = molecular target: T2, TAAR1 (Mus musculus, UniProt Q923Y8); assay: In vitro autoradiography, TAAR1 knockout vs wild-type mouse tissue sections; format: binding
T2 construct: peripheral organs that express endogenous TAAR1; tissue Charles River (wild-type); F. Hoffmann-La Roche Ltd. (TAAR1 knock-out and matched controls); host or cells: mouse pancreas, kidney, liver, brain
T2 sequence (Q923Y8 whole entry): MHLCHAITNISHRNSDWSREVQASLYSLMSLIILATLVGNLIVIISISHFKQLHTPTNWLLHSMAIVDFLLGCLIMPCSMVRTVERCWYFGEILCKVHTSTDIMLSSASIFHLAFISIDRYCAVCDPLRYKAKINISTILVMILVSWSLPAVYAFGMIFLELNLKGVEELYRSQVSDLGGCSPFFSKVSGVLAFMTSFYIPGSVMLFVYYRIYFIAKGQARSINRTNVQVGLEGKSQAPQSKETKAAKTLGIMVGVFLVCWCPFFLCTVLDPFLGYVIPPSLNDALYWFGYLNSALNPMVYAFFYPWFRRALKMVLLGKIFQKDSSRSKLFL
Description: as §3

TAAR1 [12] = molecular target: T2, TAAR1; assay: Ex vivo whole-body biodistribution, baseline and blockade; format: in vivo, CD1 mice
Description: Female CD1 mice (16 weeks old, n = 4) received [^18F]TAAR1-2203 (15 µCi, 0.56 MBq in 100 µL saline) via tail vein injection. For blocking studies, TAAR1 agonist RO5425754 (4 mg/kg) dissolved in saline containing 10% DMSO and 5% Tween® 80 was administered shortly before tracer injection through the same i.v. catheter. Mice were sacrificed at 5, 15, 30, and 60 min post-injection (n = 4 per group), and organs were harvested, weighed, and measured for radioactivity using a Packard Cobra 5002/5003 gamma counter. Data were decay-corrected and expressed as percentage of injected dose per gram of wet tissue (%ID/g).

[13] = baseline, i.v., initial uptake post-injection
[14] = blockade with RO5425754 4 mg/kg, 15 min post-injection, n = 4

Cc1c([18F])cccc1[C@H]1COC(N)=N1 [[^18F]TAAR1-2203]
logD [1]: 1.64 ± 0.01 | Stability in formulation [2]: no detectable degradation | Intact parent tracer in mouse serum [3]: > 99% | Intact parent tracer in NHP serum [4]: > 99% | Intact parent tracer in human serum [5]: > 99% | Intact tracer in rat liver microsomes [6]: > 98% | Intact tracer in NHP liver microsomes [7]: > 99% | Intact tracer in human liver microsomes [8]: > 99% | fraction unbound at 10 min, 2.47 MBq/mL [9]: ~0.6 | Reduction of tracer binding, rat kidney (TAAR1 [10]): greater than 70% | Reduction of tracer binding, rat pancreas (TAAR1 [10]): more than 50% | Tracer signal in brain tissue, TAAR1 KO vs WT mice (TAAR1 [11]): comparably low in both WT and KO animals | Change in tracer binding in kidney of TAAR1 KO vs WT mice (TAAR1 [11]; n = 6, p < 0.001): −50% | Change in tracer binding in pancreas of TAAR1 KO vs WT mice (TAAR1 [11]; n = 6, p < 0.001): −32% | Initial uptake in kidney (TAAR1 [12]; [13]): exceeding 10 % ID/g | Initial uptake in lung (TAAR1 [12]; [13]): exceeding 10 % ID/g | Initial uptake in pancreas (TAAR1 [12]; [13]): exceeding 10 % ID/g | Specific binding in the brain (TAAR1 [12]; blockade with RO5425754 4 mg/kg, 15 min post-injection): no specific binding was detected | Specific binding in the kidney (TAAR1 [12]; [14]): 52.5 ± 14.3% | Specific binding in the liver (TAAR1 [12]; [14]): 30.2 ± 12.2% | Specific binding in the pancreas (TAAR1 [12]; [14]): 52.2 ± 15.2%
